From the NIST ThermoML archive (doi:10.1021/acs.jced.6b01071)
± gives the expanded uncertainty stated by the source.

Assays:
[1] = Liquid; for mass density: 298.15 K, 101.33 kPa, Vibrating tube method; for vapor or sublimation pressure: Ebulliometric method (Recirculating still)
[2] = Boiling temperature at pressure P; conditions: 101.3 kPa; Liquid; Ebulliometric method (Recirculating still)
[3] = refractive index (Na D-line) (dimensionless); conditions: 298.15 K; 101.33 kPa; Liquid; Standard Abbe refractometry

SMILES	mass density [1] [kg/m3]	vapor or sublimation pressure ([1]; 381.15 K) [kPa]	vapor or sublimation pressure ([1]; 381.41 K) [kPa]	vapor or sublimation pressure ([1]; 395.9 K) [kPa]	vapor or sublimation pressure ([1]; 396.04 K) [kPa]	vapor or sublimation pressure ([1]; 406.39 K) [kPa]	vapor or sublimation pressure ([1]; 406.59 K) [kPa]	Boiling temperature at pressure P [2] [°C]	refractive index [3]	vapor or sublimation pressure ([1]; 384.76 K) [kPa]	vapor or sublimation pressure ([1]; 400.65 K) [kPa]	vapor or sublimation pressure ([1]; 411.56 K) [kPa]	vapor or sublimation pressure ([1]; 309.68 K) [kPa]	vapor or sublimation pressure ([1]; 320.76 K) [kPa]	vapor or sublimation pressure ([1]; 328.55 K) [kPa]
COCC(C)OC(C)=O (stereo unspecified) [1-methoxy-2-propyl acetate]	961.52 ± 5	30 ± 1	30 ± 1	50 ± 1	50 ± 1	70 ± 1	70 ± 1	145.57 ± 0.2	1.3986 ± 0.01						
CN(C)C=O [dimethylformamide]	943.89 ± 5							153.50 ± 0.2	1.4277 ± 0.01	30 ± 1	50 ± 1	70 ± 1			
CO [methanol]	786.59 ± 5							64.48 ± 0.2	1.3264 ± 0.01				30 ± 1	50 ± 1	70 ± 1
